Laboratory results as given in the supplement of paper PMC4862054.

What follows are compounds tested on MDA-MB-436 (assay: normalised response (% of control), CellTiter-Glo; higher = more viable cells (100 = DMSO, 0 = benzethonium chloride kill control)). Settings: incubation time: 72 h.
Description: (§1)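 DSRT, 72 h incubation, CellTox Green / CellTiter-Glo readout. Signal is normalised to DMSO and benzethonium chloride controls. Value is the normalised response at the highest dose.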

Compared with `O=C(O)CNC(=O)c1c(O)c2ccccc2n(Cc2ccccc2)c1=O` [IOX-2] (50000 nM), `CN(Cc1cnc2nc(N)nc(N)c2n1)c1ccc(C(=O)N[C@@H](CCC(=O)O)C(=O)O)cc1` [Methotrexate] (50000 nM) is higher in normalised response: 62.9% for the first, 77.1% for the second.

First: CN(C)C(=N)NC(=N)N [Metformin] (100000 nM)
Second: C=CCN(/C=C1/C(=O)O[C@H](COC)[C@@]2(C)C1=C(O)C(=O)C1=C2[C@H](OC(C)=O)C[C@]2(C)C(=O)CC[C@@H]12)CC=C [Sonolisib] (10000 nM)
The normalised response of the first is higher: 102% for the first, 101% for the second.

The compounds below were run on MDA-MB-453 in the same assay as above. Settings: incubation time: 72 h.
Description: as §1

First: CCn1c(C(=O)N(C2CC2)C2CC2)cc2c3c(ncn3C)c(Nc3cc(C)n(C)n3)nc21 (10000 nM)
Second: C=CCN(/C=C1/C(=O)O[C@H](COC)[C@@]2(C)C1=C(O)C(=O)C1=C2[C@H](OC(C)=O)C[C@]2(C)C(=O)CC[C@@H]12)CC=C [Sonolisib] (10000 nM)
The normalised response of the first is higher: 97% for the first, 84.8% for the second.

Going from `CN[C@@H](C)C(=O)N[C@H]1CN(C(=O)CC(C)C)CC[C@H]2CC[C@@H](C(=O)NC(c3ccccc3)c3ccccc3)N2C1=O` [AT-406] (10000 nM) to `O=C(O)CNC(=O)c1c(O)c2ccccc2n(Cc2ccccc2)c1=O` [IOX-2] (50000 nM), the normalised response rises from 58.1% to 103%.

First: CCN(CC)CCCC(C)Nc1ccnc2cc(Cl)ccc12 (stereo not given) [Chloroquine] (100000 nM)
Second: CN(Cc1cnc2nc(N)nc(N)c2n1)c1ccc(C(=O)N[C@@H](CCC(=O)O)C(=O)O)cc1 [Methotrexate] (50000 nM)
The normalised response of the first is lower: 0.26% for the first, 96% for the second.

First: CC(C)(C)c1nc(-c2cccc(NS(=O)(=O)c3c(F)cccc3F)c2F)c(-c2ccnc(N)n2)s1 [Dabrafenib] (2500 nM)
Second: Cc1nc(C(=O)NCC(=O)O)c(O)c2ccc(Oc3ccccc3)cc12 [FG-4592] (10000 nM)
The normalised response of the first is lower: 95.4% for the first, 97.4% for the second.

For `CN(C)C(=N)NC(=N)N` [Metformin] (100000 nM), the normalised response was 89.9%.

The compounds below were run on MDA-MB-468 in the same assay as above. Settings: incubation time: 72 h.
Description: as §1

Going from `CCn1c(C(=O)N(C2CC2)C2CC2)cc2c3c(ncn3C)c(Nc3cc(C)n(C)n3)nc21` (10000 nM) to `C=CCN(/C=C1/C(=O)O[C@H](COC)[C@@]2(C)C1=C(O)C(=O)C1=C2[C@H](OC(C)=O)C[C@]2(C)C(=O)CC[C@@H]12)CC=C` [Sonolisib] (10000 nM), the normalised response falls from 94.4% to 86%.

Compared with `CN[C@@H](C)C(=O)N[C@H]1CN(C(=O)CC(C)C)CC[C@H]2CC[C@@H](C(=O)NC(c3ccccc3)c3ccccc3)N2C1=O` [AT-406] (10000 nM), `O=C(O)CNC(=O)c1c(O)c2ccccc2n(Cc2ccccc2)c1=O` [IOX-2] (50000 nM) is higher in normalised response: 65.1% for the first, 92.2% for the second.

Going from `CCN(CC)CCCC(C)Nc1ccnc2cc(Cl)ccc12` (stereo not given) [Chloroquine] (100000 nM) to `CN(Cc1cnc2nc(N)nc(N)c2n1)c1ccc(C(=O)N[C@@H](CCC(=O)O)C(=O)O)cc1` [Methotrexate] (50000 nM), the normalised response rises from 1.06% to 100%.

Going from `CC(C)(C)c1nc(-c2cccc(NS(=O)(=O)c3c(F)cccc3F)c2F)c(-c2ccnc(N)n2)s1` [Dabrafenib] (2500 nM) to `Cc1nc(C(=O)NCC(=O)O)c(O)c2ccc(Oc3ccccc3)cc12` [FG-4592] (10000 nM), the normalised response rises from 89.2% to 110%.

`CN(C)C(=N)NC(=N)N` [Metformin] (100000 nM) gave a normalised response of 86.1%.

The compounds below were run on MFM-223 in the same assay as above. Settings: incubation time: 72 h.
Description: as §1

First: CCn1c(C(=O)N(C2CC2)C2CC2)cc2c3c(ncn3C)c(Nc3cc(C)n(C)n3)nc21 (10000 nM)
Second: C=CCN(/C=C1/C(=O)O[C@H](COC)[C@@]2(C)C1=C(O)C(=O)C1=C2[C@H](OC(C)=O)C[C@]2(C)C(=O)CC[C@@H]12)CC=C [Sonolisib] (10000 nM)
The normalised response of the first is lower: 83.1% for the first, 106% for the second.

Going from `CN[C@@H](C)C(=O)N[C@H]1CN(C(=O)CC(C)C)CC[C@H]2CC[C@@H](C(=O)NC(c3ccccc3)c3ccccc3)N2C1=O` [AT-406] (10000 nM) to `O=C(O)CNC(=O)c1c(O)c2ccccc2n(Cc2ccccc2)c1=O` [IOX-2] (50000 nM), the normalised response falls from 102% to 98.2%.

Going from `CCN(CC)CCCC(C)Nc1ccnc2cc(Cl)ccc12` (stereo not given) [Chloroquine] (100000 nM) to `CN(Cc1cnc2nc(N)nc(N)c2n1)c1ccc(C(=O)N[C@@H](CCC(=O)O)C(=O)O)cc1` [Methotrexate] (50000 nM), the normalised response rises from 0.63% to 101%.

Compared with `CC(C)(C)c1nc(-c2cccc(NS(=O)(=O)c3c(F)cccc3F)c2F)c(-c2ccnc(N)n2)s1` [Dabrafenib] (2500 nM), `Cc1nc(C(=O)NCC(=O)O)c(O)c2ccc(Oc3ccccc3)cc12` [FG-4592] (10000 nM) is higher in normalised response: 93.1% for the first, 103% for the second.

With `CN(C)C(=N)NC(=N)N` [Metformin] (100000 nM) the normalised response was 90.3%.

What follows are compounds tested on SK-BR-3 in the same assay as above. Settings: incubation time: 72 h.
Description: as §1

Going from `CCn1c(C(=O)N(C2CC2)C2CC2)cc2c3c(ncn3C)c(Nc3cc(C)n(C)n3)nc21` (10000 nM) to `C=CCN(/C=C1/C(=O)O[C@H](COC)[C@@]2(C)C1=C(O)C(=O)C1=C2[C@H](OC(C)=O)C[C@]2(C)C(=O)CC[C@@H]12)CC=C` [Sonolisib] (10000 nM), the normalised response rises from 93.2% to 93.9%.

First: CN[C@@H](C)C(=O)N[C@H]1CN(C(=O)CC(C)C)CC[C@H]2CC[C@@H](C(=O)NC(c3ccccc3)c3ccccc3)N2C1=O [AT-406] (10000 nM)
Second: O=C(O)CNC(=O)c1c(O)c2ccccc2n(Cc2ccccc2)c1=O [IOX-2] (50000 nM)
The normalised response of the first is lower: 89.6% for the first, 94% for the second.

Going from `CCN(CC)CCCC(C)Nc1ccnc2cc(Cl)ccc12` (stereo not given) [Chloroquine] (100000 nM) to `CN(Cc1cnc2nc(N)nc(N)c2n1)c1ccc(C(=O)N[C@@H](CCC(=O)O)C(=O)O)cc1` [Methotrexate] (50000 nM), the normalised response rises from 0.25% to 72.5%.

Compared with `CC(C)(C)c1nc(-c2cccc(NS(=O)(=O)c3c(F)cccc3F)c2F)c(-c2ccnc(N)n2)s1` [Dabrafenib] (2500 nM), `Cc1nc(C(=O)NCC(=O)O)c(O)c2ccc(Oc3ccccc3)cc12` [FG-4592] (10000 nM) is higher in normalised response: 80.8% for the first, 101% for the second.

`CN(C)C(=N)NC(=N)N` [Metformin] (100000 nM) gave a normalised response of 80%.
